Laboratory results taken from patent US5859056A, “Pharmaceutical composition for treating cardiovascular diseases containing 3-(2,2,2-trimethylhydrazinium)propionate and γ-butyrobetaine” (priority 1995, dated 1999).
Like-named read-outs stand apart in the source and are kept apart here.

Tests used:
[1] = tested on: hemodynamics of anesthetised cats; experiment: effects on hemodynamics of anesthetised cats (Table 1); assay type: in vivo, cat
Experimental: The experiments were performed on male and female (2.9-3.8 kg) anaesthetized cats (urethane 200 mg/kg and chloralose 50 mg/kg, both i.p.).
The chest was opened in the experimental animals, which were artificially respirated, and blood pressure in the carotid artery as well as general aorta blood flow were measured on physiograph DMP-46 "Narco Bio-Systems" USA.

[2] = tested on: ischemia and reperfusion-induced heart rhythm disturbances in rats; experiment: ischemia and reperfusion-induced heart rhythm disturbances in rats, prophylactic regimen (Table 7); assay type: in vivo, Wistar rats; settings: for Lethality (number of animals from total numb) / ST rise during occlusion / Ventricular fibrillation (number of animals from total numb) / Ventricular tachycardy (number of animals from total numb): 50 mg/kg (proph.), i.v. 30 min before occlusion; for efficacy against ischaemia-reperfusion-induced damage and rhythm disturbances: prophylactic regimen, in words
Experimental: (§2) The experiments were carried out on Wistar rats (260-330 g). During phenobarbital anesthesia (50 mg/kg, i.p.) and artificial respiration their chest was opened and the left coronary artery was ligated with 6.0 Silk Ethicon thread which was pulled out through plastic pipe. Occlusion was made by pressing the plastic pipe to the heart surface, and ischaemia stage was controlled by ECG, fixing ischaemia-induced changes in ECG. Solutions of the substances or saline were i.v. injected in two regimens:
1) prophylactically--30 min before occlusion by administration of 50 mg/kg,

rabbit ear blood vessel = experiment: adrenaline-induced rabbit ear blood vessel spasm in the presence of L-nitro-arginine (Table 3); settings: adrenaline 3.10^-7 M and L-NO2-Arg 10 mg/l
[3] = tested on: ischemia- and reperfusion-induced heart rhythm disturbances in rats; experiment: ischemia- and reperfusion-induced heart rhythm disturbances in rats, therapeutic regimen (Table 6); assay type: in vivo, Wistar rats; settings: for Lethality (number of animals from total numb) / ST rise during occlusion / Ventricular fibrillation (number of animals from total numb) / Ventricular tachycardy (number of animals from total numb): 50 mg/kg total (25 injection + 25 infusion); for efficacy against ischaemia-reperfusion-induced damage and rhythm disturbances: therapeutic regimen, in words
Experimental: as §2
2) therapeutically--1.5 min after occlusion by administering 25 mg/kg in injection and 25 mg/kg infusively. Infusion was stopped 2 min after reperfusion.

[4] = tested on: CaCl2-induced lethal arrhythmias in rats; experiment: CaCl2-induced lethal arrhythmias in rats (Table 5); assay type: in vivo, albino rats; settings: for Survive (number of animals) / Survive (percent): 5 observations
Experimental: These experiments were performed on male and female albino rats (190 to 230 g) anesthetized with urethane ([…], i.p.), and after 2% calcium chloride solution administration to animal foot vein ECG was registered in II standard lead.

[5] = tested on: isolated rabbit ear blood vessel; experiment: adrenaline-induced isolated rabbit ear blood vessel spasms (Table 2); settings: for Perfusion pressure, final data, max / Perfusion pressure, final data, min: after adrenaline 3.10^-7 M addition
carnitine biosynthesis = settings: cited from earlier work; for mechanism of action: literature
[6] = tested on: CaCl2-induced lethal arrhythmias in mice; experiment: CaCl2-induced lethal arrhythmias in mice (Table 4); assay type: in vivo, albino mice; settings: for Survive (number of animals): 10 observations
Experimental: This experiment was performed on male and female conscious albino mice (19-26 g) administering to their tail vein a 2% (by weight) calcium chloride solution, animal protection against lethal arrhythmia being used as an effect criterion (Table 4).

[7] = literature statements; cited from earlier work
[8] = cited from earlier work; for toxic effects: W. Linneweh, 1929
in vivo = settings: mouse, in vivo
Experimental: (§1) Acute toxicity was studied on male and female albino mice (19-26 g), 10 animals in a group. The substances were administered as a 10% solution orally or i.v. (with 0.004 ml/sec rate).

albino mice = experiment: in vivo; settings: in words
Experimental: as §1

CC(=O)OCC[N+](C)(C)C [Ach, acetyl choline]
Blood pressure changes ([1]; 0.001 mg/kg i.v.): -35%
Heart rate changes ([1]; 0.001 mg/kg i.v.): -20%

C[N+](C)(C)NCCC(=O)[O-] [M, 3-(2,2,2-Trimethylhydrazinium)propionate]
Lethality (number of animals from total numb) [2]: 2/8
ST rise during occlusion [2]: 0.31 mV
Ventricular fibrillation (number of animals from total numb) [2]: 5/8
Ventricular tachycardy (number of animals from total numb) [2]: 7/8
efficacy against ischaemia-reperfusion-induced damage and rhythm disturbances [2]: markedly better in the case of prophylaxis, i.e., 30 min. before occlusion when it protects myocardium from ischemia increase during occlusion
Perfusion pressure, final data, max (rabbit ear blood vessel; 0.3 μM): 165 mm Hg
Perfusion pressure, final data, min (rabbit ear blood vessel; 0.3 μM): 102 mm Hg
Perfusion pressure, final data, max (rabbit ear blood vessel; 1.0 μM): 163 mm Hg
Perfusion pressure, final data, min (rabbit ear blood vessel; 1.0 μM): 100 mm Hg
Perfusion pressure, final data, max (rabbit ear blood vessel; 2.0 μM): 165 mm Hg
Perfusion pressure, final data, min (rabbit ear blood vessel; 2.0 μM): 100 mm Hg
Lethality (number of animals from total numb) [3]: 3/10
ST rise during occlusion [3]: 0.4 ± 0.1 mV
Ventricular fibrillation (number of animals from total numb) [3]: 8/10
Ventricular tachycardy (number of animals from total numb) [3]: 10/10
efficacy against ischaemia-reperfusion-induced damage and rhythm disturbances [3]: relatively low
Protection against the control ([4]; 10 mg/kg p.o.): 15%
Survive (number of animals) ([4]; 10 mg/kg p.o.): 1
Survive (percent) ([4]; 10 mg/kg p.o.): 20%
Protection against the control ([4]; 20 mg/kg p.o.): 23%
Survive (number of animals) ([4]; 20 mg/kg p.o.): 1
Survive (percent) ([4]; 20 mg/kg p.o.): 20%
Protection against the control ([4]; 30 mg/kg p.o.): 25%
Survive (number of animals) ([4]; 30 mg/kg p.o.): 1
Survive (percent) ([4]; 30 mg/kg p.o.): 20%
Perfusion pressure, final data, max ([5]; 0.3 μM): 125 mm Hg
Perfusion pressure, final data, min ([5]; 0.3 μM): 80 mm Hg
Perfusion pressure, final data, max ([5]; 1.0 μM): 123 mm Hg
Perfusion pressure, final data, min ([5]; 1.0 μM): 77 mm Hg
Perfusion pressure, final data, max ([5]; 2.0 μM): 126 mm Hg
Perfusion pressure, final data, min ([5]; 2.0 μM): 80 mm Hg
mechanism of action (carnitine biosynthesis): limitation of carnitine biosynthesis rate and the related long-chain fatty acid Transport limitation through mitochondria membranes
mechanism of action (carnitine biosynthesis; listed as 3-(2,2,2-trimethylhydrazinium)-propionate (THP)): γ-butyrobetaine hydroxylase inhibitor
Protection against the control ([6]; 8 mg/kg p.o.): 10%
Survive (number of animals) ([6]; 8 mg/kg p.o.): 2
Protection against the control ([6]; 20 mg/kg p.o.): 20%
Survive (number of animals) ([6]; 20 mg/kg p.o.): 3
Protection against the control ([6]; 30 mg/kg p.o.): 30%
Survive (number of animals) ([6]; 30 mg/kg p.o.): 4
Protection against the control ([6]; 50 mg/kg p.o.): 30%
Survive (number of animals) ([6]; 50 mg/kg p.o.): 4
Protection against the control ([6]; 100 mg/kg p.o.): 40%
Survive (number of animals) ([6]; 100 mg/kg p.o.): 5
Blood flow rate changes ([1]; 5.0 mg/kg i.v.): +5%
Blood flow rate changes ([1]; 10.0 mg/kg i.v.): +8%

CCOC(=O)Nc1ccc2c(c1)N(C(=O)CCN1CCOCC1)c1ccccc1S2 [Etmozine]
Protection against the control ([4]; 3 mg/kg p.o.): 20%
Survive (number of animals) ([4]; 3 mg/kg p.o.): 1
Survive (percent) ([4]; 3 mg/kg p.o.): 10%
Protection against the control ([4]; 10 mg/kg p.o.): 46%
Survive (number of animals) ([4]; 10 mg/kg p.o.): 2
Survive (percent) ([4]; 10 mg/kg p.o.): 40%
Protection against the control ([6]; 5 mg/kg p.o.): 20%
Survive (number of animals) ([6]; 5 mg/kg p.o.): 3
Protection against the control ([6]; 10 mg/kg p.o.): 40%
Survive (number of animals) ([6]; 10 mg/kg p.o.): 5
Protection against the control ([6]; 30 mg/kg p.o.): 40%
Survive (number of animals) ([6]; 30 mg/kg p.o.): 5

C=C[C@H]1C[N@@]2CC[C@H]1C[C@@H]2[C@@H](O)c1ccnc2ccc(OC)cc12 [Quinidine]
Protection against the control ([4]; 3 mg/kg p.o.): 25%
Survive (number of animals) ([4]; 3 mg/kg p.o.): 1
Survive (percent) ([4]; 3 mg/kg p.o.): 20%
Protection against the control ([4]; 10 mg/kg p.o.): 46%
Survive (number of animals) ([4]; 10 mg/kg p.o.): 2
Survive (percent) ([4]; 10 mg/kg p.o.): 40%
Protection against the control ([6]; 10 mg/kg p.o.): 10%
Survive (number of animals) ([6]; 10 mg/kg p.o.): 2
Protection against the control ([6]; 30 mg/kg p.o.): 30%
Survive (number of animals) ([6]; 30 mg/kg p.o.): 4
Protection against the control ([6]; 50 mg/kg p.o.): 50%
Survive (number of animals) ([6]; 50 mg/kg p.o.): 6

C[N+](C)(C)CCCC(=O)[O-] [GBB, γ-butyrobetaine]
Lethality (number of animals from total numb) [2]: 3/8
ST rise during occlusion [2]: 0.36 mV
Ventricular fibrillation (number of animals from total numb) [2]: 6/8
Ventricular tachycardy (number of animals from total numb) [2]: 8/8
efficacy against ischaemia-reperfusion-induced damage and rhythm disturbances [2]: ineffective
Perfusion pressure, final data, max (rabbit ear blood vessel; 0.3 μM): 168 mm Hg
Perfusion pressure, final data, min (rabbit ear blood vessel; 0.3 μM): 105 mm Hg
Perfusion pressure, final data, max (rabbit ear blood vessel; 1.0 μM): 165 mm Hg
Perfusion pressure, final data, min (rabbit ear blood vessel; 1.0 μM): 100 mm Hg
Perfusion pressure, final data, max (rabbit ear blood vessel; 2.0 μM): 163 mm Hg
Perfusion pressure, final data, min (rabbit ear blood vessel; 2.0 μM): 100 mm Hg
Lethality (number of animals from total numb) [3]: 1/10
ST rise during occlusion [3]: 0.23 ± 0.05 mV
Ventricular fibrillation (number of animals from total numb) [3]: 4/10
Ventricular tachycardy (number of animals from total numb) [3]: 7/10
efficacy against ischaemia-reperfusion-induced damage and rhythm disturbances [3]: effectively protects myocardium from ischaemia-reperfusion-induced myocardium damages and ventricular fibrillations which are partially resumed after infusion termination
Protection against the control ([4]; 10 mg/kg p.o.): 20%
Survive (number of animals) ([4]; 10 mg/kg p.o.): 1
Survive (percent) ([4]; 10 mg/kg p.o.): 20%
Protection against the control ([4]; 30 mg/kg p.o.): 32%
Survive (number of animals) ([4]; 30 mg/kg p.o.): 1
Survive (percent) ([4]; 30 mg/kg p.o.): 20%
Perfusion pressure, final data, max ([5]; 0.3 μM): 124 mm Hg
Perfusion pressure, final data, min ([5]; 0.3 μM): 76 mm Hg
Perfusion pressure, final data, max ([5]; 1.0 μM): 125 mm Hg
Perfusion pressure, final data, min ([5]; 1.0 μM): 80 mm Hg
Perfusion pressure, final data, max ([5]; 2.0 μM): 125 mm Hg
Perfusion pressure, final data, min ([5]; 2.0 μM): 78 mm Hg
potency on adrenaline-induced vessel spasms relative to 3-(2,2,2-trimethylhydrazinium)propionate ([5]; isolated rabbit ear): 2-3 times
level of carnitine biosynthesis in the organism (carnitine biosynthesis; background statement): increases the level of carnitine biosynthesis in the organism
pharmacological action [7]: pharmacologically inert substance
Protection against the control ([6]; 8 mg/kg p.o.): 10%
Survive (number of animals) ([6]; 8 mg/kg p.o.): 2
Protection against the control ([6]; 20 mg/kg p.o.): 0%
Survive (number of animals) ([6]; 20 mg/kg p.o.): 1
Protection against the control ([6]; 30 mg/kg p.o.): 20%
Survive (number of animals) ([6]; 30 mg/kg p.o.): 3
Protection against the control ([6]; 50 mg/kg p.o.): 40%
Survive (number of animals) ([6]; 50 mg/kg p.o.): 5
Protection against the control ([6]; 100 mg/kg p.o.): 30%
Survive (number of animals) ([6]; 100 mg/kg p.o.): 4
protection from lethal arrhythmia (cases) ([6]; 50 and 100 mg/kg of γ-butyrobetaine): 30-40%
toxic effects ([8]; listed as γ-Butyrobetaine): accelerates respiration, causes salivation and lacrimation, pupil dilation, vasoconstriction and heart stop in diastole
toxic effects ([8]; listed as γ-butyrobetaine): heart stop in diastole
LD50 ([8]; s.c.): > 7000 mg/kg
LD50 (in vivo; iv): 1860 mg/kg
LD50 (in vivo; po): > 4500 mg/kg
acute toxicity (albino mice): practically nontoxic agent
Blood flow rate changes ([1]; 5.0 mg/kg i.v.): 6%
Blood flow rate changes ([1]; 10.0 mg/kg i.v.): 12%

COC(=O)CCC[N+](C)(C)C [methyl ester]
pharmacological action [7]: possesses cholinergic properties
